Experimental data reported in patent publication EP2762468A1, “2-aminopyridine derivatives as plant growth regulating compounds” (Syngenta Participations AG, priority 2013, dated 2014).

Experiments:
[1] = system: French beans (Phaseolus vulgaris) of the variety Fulvio; test: Bean assay: elongation of the petiole of the second leaf; assay type: in vivo; conditions: five micro litres of test compound pipetted to the wound at the base of the second internode; measured fourteen days after application
Protocol: (§1) Two bioassays were developed in order to assay the activity of the compounds of the present invention. In the first assay, the activity of the compound was quantified in beans based on its effect on the elongation of the petiole of the second leaf. In the second assay, the compound's effect on the root growth of wheat was determined.
French beans (Phaseolus vulgaris) of the variety Fulvio were sown in 0.5 litres pots in a sandy loam without additional fertilizer. Plants grew under greenhouse conditions at 22/18°C (day/night) and 80% relative humility; light was supplemented […] 25 kLux. Plants were treated with test compounds eleven days after sowing, when the second internode was 2-5 mm long. Before application, the compounds were each dissolved in dimethyl sulfoxide and diluted in a mixture of lanolin-oil and acetone (1:2 ratio by volume). Five micro litres of the test compound was pipetted to the wound that was created after abscising the bract leaf from the base of the second internode. Fourteen days after application, the length of the petiole of the second leaf (measured from the base of the petiole to the base of the first leaflet) was determined in order to quantify the activity of the compounds.

[2] = molecular target: T1, Arabidopsis BIN2 kinase (Uniprot Q39011) (Arabidopsis thaliana, UniProt Q39011); test: In vitro assay for inhibition of plant GSK3/Shaggy-like kinase activity (ADP-Glo); assay type: biochemical; conditions: compounds at 5 µM; 5 µM ATP; myelin basic protein substrate; 1 h at 20°C; triplicate; read-out: inhibited the activity of His6-BIN2 relative to the solvent vehicle control
T1 construct: made in house; host or cells: E. coli BL21
T1 sequence (Q39011 1-380): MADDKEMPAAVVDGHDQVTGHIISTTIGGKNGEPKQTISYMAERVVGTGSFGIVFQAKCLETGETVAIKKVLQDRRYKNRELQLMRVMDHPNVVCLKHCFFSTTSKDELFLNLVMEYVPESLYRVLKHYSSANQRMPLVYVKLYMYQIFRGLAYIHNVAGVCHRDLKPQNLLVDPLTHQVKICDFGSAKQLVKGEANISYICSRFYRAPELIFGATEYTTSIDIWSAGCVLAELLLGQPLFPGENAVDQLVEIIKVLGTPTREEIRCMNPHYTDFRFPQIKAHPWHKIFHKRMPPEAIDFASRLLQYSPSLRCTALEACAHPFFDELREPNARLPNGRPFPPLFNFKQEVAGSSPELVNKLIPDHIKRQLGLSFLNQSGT
Protocol: Arabidopsis BIN2 kinase (Uniprot Q39011) was produced in E.coli BL21 as an N-terminal hexahistidine fusion protein. In vitro kinase assays were performed by incubating 50 ng His6-BIN2 protein with 5 µg myelin basic protein (Sigma-Aldrich) as substrate and 5 µM ATP as co-substrate in reaction buffer consisting of 40 mM Tris-HCl, 20 mM MgCl2 and 0.1mg/mL bovine serum albumin in a final reaction volume of 50 µl. Enzyme activity was assessed in the absence and presence of compounds (described in Tables A and B) at 5 µM by measuring the level of ADP produced after incubation for 1 h at 20°C using an enzyme-coupled bioluminescent assay (ADP-Glo, Promega Corp.). The experiment was performed in triplicate.

[3] = system: Wheat (Triticum aestivum) seeds of the variety Arina; test: Wheat assay: plant (root and shoot) area and curliness of the roots; assay type: in vivo; conditions: seeds sown in pouches with compound solution; twelve days after sowing/application
Protocol: as §1
The test compounds were dissolved in small volumes of dimethyl sulfoxide and diluted to the appropriate concentration with water. Wheat (Triticum aestivum) seeds of the variety Arina were sown in pouches (14.7 × 13.2 cm) containing 10 mL of the appropriate compound solution. The pouches were stored at 17 °C for three days to enable the seeds to germinate. Plants were then stored at 5°C. Twelve days after sowing/application, plants were removed from the pouches and scanned. The effect of the compounds was quantified by determining plant (root and shoot) area and curliness of the roots (curliness is an indicator of brassinosteroid-type activity).

SMILES | increase of the length of the petiole of the second leaf [1] [%] | inhibition at 5 µM [2] [%] | curliness of the roots (indicator of brassinosteroid-type activity) [3] | reduction of the plant (root and shoot) area [3] [%]
COC(=O)CCC(=O)Nc1cc(Cl)ccn1 [Compound A1, methyl 4-[(4-chloro-2-pyridyl)amino]-4-oxo-butanoate] | ≥ 10 | ≥ 20 | – | –
COC(=O)CCC(=O)Nc1cc(C(F)(F)F)ccn1 [Compound A2] | – | ≥ 20 | – | –
COC(=O)CCC(=O)Nc1cc(C#N)ccn1 [Compound A3, methyl 4-[(4-cyano-2-pyridyl)amino]-4-oxo-butanoate] | – | ≥ 20 | – | –
COC(=O)CCC(=O)Nc1cc([N+](=O)[O-])ccn1 [Compound A5] | – | ≥ 20 | – | –
COC(=O)CCC(=O)Nc1cc(I)ccn1 [Compound A6] | – | ≥ 20 | – | –
N#Cc1ccnc(NC(=O)CCC(=O)O)c1 [Compound A7, 4-[(4-cyano-2-pyridyl)amino]-4-oxo-butanoic acid] | – | ≥ 20 | – | –
O=C(O)CCC(=O)Nc1cc(C(F)(F)F)ccn1 [Compound A8] | – | ≥ 20 | – | –
COC(=O)CCC(=O)Nc1cc(Br)ccn1 [Compound A9] | – | ≥ 20 | – | –
O=C1CCC(=O)N1c1cc(C(F)(F)F)ccn1 [Compound B1, 1-[4-(trifluoromethyl)-2-pyridyl]pyrrolidine-2,5-dione] | ≥ 10 | ≥ 20 | curly root phenotype | ≥ 5
